Results on eleven molecules are retold here after patent US12435060B2, “Acylamino bridged heterocyclic compound, and composition and application thereof” (BEIJING SCITECH-MQ PHARMACEUTICALS LIMITED, priority 2019, dated 2025).

pIC50: −log10 of the molar value.

The subject of this test is HT29 cells. As to the kind of experiment: Inhibition of cell necrosis (CCK8 method), induced programmed necrosis of HT29 cells. The format is cell-based. Particulars: Homo sapiens, HT-29; rescue from necrosis induced by TNF-α 20 ng/mL, AT-406 1 μM, Z-VAD-FMK 20 μM; 16-20 hours; CCK-8, OD 450 nm. In short, it runs like this:
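HT29 cells in McCOY's 5A with 10% FBS were pre-treated for 30 min with compound (9 fourfold steps, 25000 to 0.38 nM final, 0.25% DMSO). Necrosis was then induced with TNF-α 20 ng/mL, AT-406 1 μM and Z-VAD-FMK 20 μM for 16-20 h. Viability was read by CCK-8 OD450, normalized between uninduced and induced wells, and IC50 was curve-fitted.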
For orientation: Formazan colour is commonly taken as a measure of viable cells.
In the case of `Cc1ccc(OCCN2CCCCC2)cc1-c1ccnc(NC(=O)c2nnc(Cc3cc(F)cc(F)c3)[nH]2)c1` [Example 232, 5-(3,5-difluorobenzyl)-N-(4-(2-methyl-5-(2-(piperidin-1-yl)ethoxy)phenyl)pyridin-2-yl)-4H-1,2,4-triazole-3-carboxamide], the pIC50 was 6.00 to 7.00.
For the molecule `Cc1ccc(OCCN2CCCCC2)cc1-c1ccnc(NC(=O)c2nnc(Cc3cccc(Cl)c3F)[nH]2)c1` [Example 233, 5-(2-fluoro-3-chlorobenzyl)-N-(4-(2-methyl-5-(2-(piperidin-1-yl)ethoxy)phenyl)pyridin-2-yl)-4H-1,2,4-triazole-3-carboxamide], the pIC50 was 5.00 to 6.00.
The result for `Cc1ccc(OCC2CCN(C)CC2)cc1-c1ccnc(NC(=O)c2nnc(Cc3ccccc3F)[nH]2)c1` [Example 234, 5-(2-fluorobenzyl)-N-(4-(2-methyl-5-((1-methylpiperidin-4-yl)methoxy)phenyl)pyridin-2-yl)-4H-1,2,4-triazole-3-carboxamide] reads no less than 7.00; that for `Cc1c(F)cc(OCCCC(C)(C)O)cc1-c1ccnc(NC(=O)c2nnc(Cc3ccccc3)[nH]2)c1` [Example 235, 5-benzyl-N-(4-(3-fluoro-5-((4-hydroxy-4-methylpentyl)oxy)-2-methylphenyl)pyridin-2-yl)-4H-1,2,4-triazole-3-carboxamide], no less than 7.00.
Turning to `Cc1c(F)cc(OCCCC(C)(C)O)cc1-c1ccnc(NC(=O)c2nnc(Cc3ccccc3F)[nH]2)c1` [Example 236, 5-(2-fluorobenzyl)-N-(4-(3-fluoro-5-((4-hydroxy-4-methylpentyl)oxy)-2-methylphenyl)pyridin-2-yl)-4H-1,2,4-triazole-3-carboxamide], the pIC50 was no less than 7.00.
The result for `Cc1cc(F)c(OCCCC(C)(C)O)cc1-c1ccnc(NC(=O)c2nnc(Cc3ccccc3)[nH]2)c1` [Example 237, 5-benzyl-N-(4-(4-fluoro-5-((4-hydroxy-4-methylpentyl)oxy)-2-methylphenyl)pyridin-2-yl)-4H-1,2,4-triazole-3-carboxamide] reads no less than 7.00; that for `Cc1ccc(OCCCC(C)(C)O)cc1-c1cc(NC(=O)c2nnc(Cc3ccccc3F)[nH]2)ncc1Cl` [Example 238, N-(5-chloro-4-(5-((4-hydroxy-4-methylpentyl)oxy)-2-methylphenyl)pyridin-2-yl)-5-(2-fluorobenzyl)-4H-1,2,4-triazole-3-carboxamide], no less than 7.00; that for `Cc1ccc(OCCCC(C)(C)O)cc1-c1cc(NC(=O)c2nnc(CC3CCCCC3)[nH]2)ncc1Cl` [Example 239, N-(5-chloro-4-(5-((4-hydroxy-4-methylpentyl)oxy)-2-methylphenyl)pyridin-2-yl)-5-(cyclohexylmethyl)-4H-1,2,4-triazole-3-carboxamide], no less than 7.00.
To `Cc1ccc(OCCCC(C)(C)O)cc1-c1cc(NC(=O)c2nnc(Cc3ccccc3F)[nH]2)ncc1C` [Example 240, 5-(2-fluorobenzyl)-N-(4-(5-((4-hydroxy-4-methylpentyl)oxy)-2-methylphenyl)-5-methylpyridin-2-yl)-4H-1,2,4-triazole-3-carboxamide] belongs 6.00 to 7.00; to `Cc1ccc(OCCCC(C)(C)O)cc1-c1cc(NC(=O)c2nnc(CC3CCCCC3)[nH]2)ncc1C` [Example 241, 5-(cyclohexylmethyl)-N-(4-(5-((4-hydroxy-4-methylpentyl)oxy)-2-methylphenyl)-5-methylpyridin-2-yl)-4H-1,2,4-triazole-3-carboxamide], 6.00 to 7.00.
The result for `CCC(O)(CC)CCCOc1ccc(C)c(-c2cc(NC(=O)c3nnc(Cc4ccccc4F)[nH]3)ncc2F)c1` [Example 242, N-(4-(5-((4-ethyl-4-hydroxyhexyl)oxy)-2-methylphenyl)-5-fluoropyridin-2-yl)-5-(2-fluorobenzyl)-4H-1,2,4-triazole-3-carboxamide] reads no less than 7.00.

One may read the pIC50 as the negative decadic logarithm of the IC50, by convention in mol/L. A high value points to a small IC50.
